Experimental data as given in patent publication US9452126B2, “Pharmaceutical/cosmetic compositions comprising hyaluronic acid and treatment of dermatological conditions therewith” (Galderma Research & Development, priority 2005, dated 2016).

Biological target: T1, hyaluronidase of bovine origin (Bos taurus, UniProt Q2YDK3)
T1 sequence (Q2YDK3 36-553): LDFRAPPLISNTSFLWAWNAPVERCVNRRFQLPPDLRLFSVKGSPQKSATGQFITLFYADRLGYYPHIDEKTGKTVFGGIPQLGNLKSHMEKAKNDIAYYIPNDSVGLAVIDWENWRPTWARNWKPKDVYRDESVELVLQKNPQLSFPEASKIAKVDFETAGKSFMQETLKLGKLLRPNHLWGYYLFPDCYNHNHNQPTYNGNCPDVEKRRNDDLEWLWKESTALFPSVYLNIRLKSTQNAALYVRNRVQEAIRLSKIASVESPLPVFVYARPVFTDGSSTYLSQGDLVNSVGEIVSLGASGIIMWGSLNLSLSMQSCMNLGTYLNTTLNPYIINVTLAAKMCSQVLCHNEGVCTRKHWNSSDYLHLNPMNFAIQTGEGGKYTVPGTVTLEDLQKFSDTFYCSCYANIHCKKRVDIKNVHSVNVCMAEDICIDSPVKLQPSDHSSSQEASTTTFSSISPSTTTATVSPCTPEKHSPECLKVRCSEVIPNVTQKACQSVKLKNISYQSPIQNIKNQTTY
Experiment: Inhibitory effect on hyaluronidase activity of bovine origin (turbidimetry at 600 nm)
Type: biochemical
Settings: GLZ pre-incubated for 20 minutes at 37° C. with the enzyme
Protocol: Determination of the IC50 of GLZ, with or without Pre-Incubation at 37° C.:
GLZ, at various concentrations, is or is not pre-incubated for 20 minutes at 37° C. in the presence of the enzyme. The enzyme reaction is triggered by adding the hyaluronic acid solution (time T0). After incubation for 20 minutes, the non-hydrolyzed hyaluronic acid is precipitated by adding acidic bovine albumin solution.
In order to verify that the pre-incubation step has no effect on the stability of the hyaluronidase, an aliquot of a solution of the enzyme is placed at 37° C. for 20 minutes. Another aliquot is conserved in an ice bath for 19 minutes, and is then incubated at 37° C. for 1 minute. A solution of hyaluronic acid is then added to each aliquot (T0). After incubation for 15, or 45 minutes, the non-hydrolyzed hyaluronic acid is precipitated by addition of acidic bovine albumin solution.
Measurement of the Hyaluronidase Activity of Bovine Origin:
After the precipitation step, the turbidimetry of the solutions is determined on a spectrophotometer at a wavelength of 600 nm. The optical density (OD) of these solutions is subtracted from the OD of a control solution of hyaluronic acid (of the same concentration) not hydrolyzed by the enzyme. This difference in OD, which is inversely proportional to the concentration of hyaluronic acid, is used to measure the activity of the hyaluronidase.

SMILES: CC1(C)[C@@H](O[C@H]2O[C@H](C(=O)O)[C@@H](O)[C@H](O)[C@H]2O[C@@H]2O[C@H](C(=O)O)[C@@H](O)[C@H](O)[C@H]2O)CC[C@]2(C)[C@H]3C(=O)C=C4[C@@H]5C[C@@](C)(C(=O)O)CC[C@]5(C)CC[C@@]4(C)[C@]3(C)CC[C@@H]12 [GLZ, glycyrrhizin]
- IC50: 350 µM
